Experimental data from US8864853B2, “Additive mixture for the bactericidal and anticorrosive additization of fuels” (l'Air Liquide Societe Anonyme pour l'etude et …, priority 2009, dated 2014).

Test: Example 1: visual appearance of diesel with Cu or brass sheet
Format: physicochemical
Details: evaluation of Example 1; diesel oil with 5% FAME; time delay, concentration-dependent, turbulent flow
Experimental: Materials used: • 3,3′-methylenebis(5-methyloxazolidine) • brass 63 (100×20×1 mm), Cat. No.: 16-24 from Riegger Industriehandel, Reinbek, Federal Republic of Germany • E-copper ((100×20×1 mm), Cat. No.: 15-54 from Riegger • diesel fuel to EN 590, with 5% (V/V) fatty acid methyl ester
Procedure: The solutions and the metal sheet were each introduced into a 500 ml wide-neck bottle. Solutions 1A-1C were not stirred; solutions 1D-1G were stirred with a magnetic stirrer. The appearance of the solutions was assessed visually.

In the case of CC1CN(CN2COC(C)C2)CO1 (stereo not shown) [3,3′-methylenebis(5-methyloxazolidine)], the “compatibility as an additive to diesel oil in contact with copper or nonferrous metal” value is reported as “incompatible”.
